# Test results taken from patent US9067905B2, “Sulphone compounds and methods of making and using same” (Zafgen, Inc., priority 2009, dated 2015).
# Structures can show the parent of a compound that is named as a salt.
# Target: T1, recombinant human MetAP2 (Homo sapiens, UniProt P50579)
# T1 construct: Flag; made in house; host or cells: Sf9 insect cells
# Test: Inhibition of recombinant human MetAP2 activity (Amplex red fluorescence assay)
# Format: biochemical
# Conditions: manganese Flag-MetAP2, 0.75 mM Methionine-Alanine-Serine substrate, 30 minutes at 25° C., pH 7.5, 1% DMSO
# Description: Compounds are tested for their capacity to inhibit recombinant human MetAP2 activity using the following assay.
# Human recombinant Flag-MetAP2 expressed in Sf9 cells followed by affinity purification and EDTA treatment to remove endogenous active site cation is dialysed against MnCl2 to produce the manganese enzyme used in the assay. The assay is carried out for 30 minutes at 25° C. in 50 mM HEPES buffer containing 100 mM NaCl, pH 7.5 the presence of 0.75 mM Methionine-Alanine-Serine (MAS) substrate and 50 μg/ml amino acid oxidase using a dilution of purified MetAP2 giving approximately 50,000 RFU control activity. Cleavage of the substrate by MetAP2 and oxidation of free methionine by amino acid oxidase is detected and quantified using fluorescence generated by Amplex red (10-acetyl-3,7-dihydroxyphenoxazine) in combination with horseradish peroxidase which detects H2O2 released during the oxidation step. The fluorescent signal is detected using a multiwell fluorimeter. Compounds are diluted in DMSO prior to addition to assay buffer, the final DMSO concentration in the assay being 1%.
# The IC50 is defined as the concentration at which a given compound achieves 50% inhibition of control. IC50 values are calculated using the XLfit software package (version 2.0.5).
# T1 sequence (P50579 whole entry): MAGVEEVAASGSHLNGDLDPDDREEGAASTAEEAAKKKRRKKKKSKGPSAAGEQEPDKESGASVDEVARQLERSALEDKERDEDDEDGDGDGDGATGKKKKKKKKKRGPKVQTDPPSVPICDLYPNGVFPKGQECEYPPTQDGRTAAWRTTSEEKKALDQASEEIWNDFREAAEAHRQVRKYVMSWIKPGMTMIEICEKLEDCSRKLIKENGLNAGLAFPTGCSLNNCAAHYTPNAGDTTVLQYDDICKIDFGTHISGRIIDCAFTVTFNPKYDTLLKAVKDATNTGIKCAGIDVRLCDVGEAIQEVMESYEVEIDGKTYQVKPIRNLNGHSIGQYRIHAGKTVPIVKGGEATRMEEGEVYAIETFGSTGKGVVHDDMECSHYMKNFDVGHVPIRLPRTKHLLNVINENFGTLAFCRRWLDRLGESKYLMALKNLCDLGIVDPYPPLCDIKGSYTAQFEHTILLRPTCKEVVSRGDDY
row,Compound,IC50
1,CC(N)COc1c(-c2ccoc2)ccc(CS(=O)(=O)c2ccccc2)c1C(=O)O (centres unmarked) [2-(2-Aminopropoxy)-6-(benzenesulphonylmethyl)-3-(furan-3-yl)-benzoic acid hydrochloride],> 2000 nM
2,O=C(O)c1c(CS(=O)(=O)c2ccccc2)ccc(-c2ccoc2)c1OC1CNC1 [2-(Azetidin-3-yloxy)-6-(benzenesulphonylmethyl)-3-(furan-3-yl)-benzoic acid hydrochloride],> 2000 nM
3,CCc1ccc(CS(=O)(=O)c2ccccc2C)c(C(=O)O)c1OC [3-Ethyl-2-methoxy-6-(2-methylbenzenesulphonylmethyl)benzoic acid],200 to 2000 nM
4,CN(C)CCOc1c(-c2ccoc2)ccc(CS(=O)(=O)c2ccccc2)c1C(=O)O [6-(Benzenesulphonylmethyl)-2-(2-dimethylaminoethoxy)-3-(3-furanyl)benzoic acid hydrochloride],> 2000 nM
5,N#CCOc1c(-c2ccoc2)ccc(CS(=O)(=O)c2ccccc2)c1C(=O)O [6-(Benzenesulphonylmethyl)-2-(cyanomethoxy)-3-(furan-3-yl)benzoic acid],< 200 nM
6,CCc1c(-c2ccoc2)ccc(CS(=O)(=O)c2ccccc2)c1C(=O)O [6-(Benzenesulphonylmethyl)-2-ethyl-3-(furan-3-yl)benzoic acid],200 to 2000 nM
7,COc1cccc(S(=O)(=O)Cc2ccc(-c3ccoc3)c(OC)c2C(=O)O)c1 [3-(Furan-3-yl)-6-(3-methoxybenzenesulphonylmethyl)-2-methoxybenzoic acid],> 2000 nM
8,COc1c(-c2ccoc2)ccc(CS(=O)(=O)N2C3CCCC2CC3)c1C(=O)O [6-(8-Azabicyclo[3.2.1]octane-8-ylsulphonylmethyl)-3-(furan-3-yl)-2-methoxybenzoic acid],> 2000 nM
9,COc1c(-c2ccoc2)ccc(CS(=O)(=O)c2ccccc2C)c1C(=O)O [3-(Furan-3-yl)-2-methoxy-6-(2-methyl-benzenesulphonylmethyl)benzoic acid],200 to 2000 nM
10,COc1c(-c2ccoc2)ccc(CS(=O)(=O)c2ccccn2)c1C(=O)O [3-(Furan-3-yl)-2-methoxy-6-(pyridin-2-ylsulphonylmethyl)benzoic acid],< 200 nM
11,CCOc1c(-c2ccoc2)ccc(CS(=O)(=O)c2ccccc2)c1C(=O)O [6-(Benzenesulphonylmethyl)-2-ethoxy-3-(furan-3-yl)benzoic acid],200 to 2000 nM
12,"COc1c(-c2ccoc2)ccc(CS(=O)(=O)N2CCC(F)(F)CC2)c1C(=O)O [6-(4,4-Difluoropiperidine-1-ylsulphonylmethyl)-3-(furan-3-yl)-2-methoxybenzoic acid]",< 200 nM
13,NCCNc1c(-c2ccoc2)ccc(CS(=O)(=O)c2ccccc2)c1C(=O)O [2-(2-Aminoethylamino)-6-benzenesulphonylmethyl-3-(furan-3-yl)-benzoic acid hydrochloride],> 2000 nM
14,O=C(O)c1cc(-c2cnco2)ccc1CS(=O)(=O)c1ccccc1 [2-(Benzenesulphonylmethyl)-5-(oxazol-5-yl)benzoic acid],> 2000 nM
15,COc1c(-c2ccoc2)ccc(CS(=N)(=O)c2ccccc2)c1C(=O)O (centres unmarked) [3-(Furan-3-yl)-2-methoxy-6-[(S-phenylsulphonimidoyl)methyl]benzoic acid],200 to 2000 nM
16,COc1c(-c2ccoc2)ccc(CS(=O)(=O)c2ccccc2F)c1C(=O)O [6-(2-Fluorobenzenesulphonylmethyl)-3-(furan-3-yl)-2-methoxybenzoic acid],200 to 2000 nM
17,CCc1ccc(C[S+]([O-])c2ccccc2)c(C(=O)O)c1OC (centres unmarked) [6-(Benzenesulphinylmethyl)-3-ethyl-2-methoxy-benzoic acid],> 2000 nM
18,COc1ccccc1S(=O)(=O)Cc1ccc(-c2ccoc2)c(OC)c1C(=O)O [3-(Furan-3-yl)-2-methoxy-6-(2-methoxybenzenesulphonylmethyl)-benzoic acid],200 to 2000 nM
19,Cn1nccc1-c1ccc(CS(=O)(=O)c2ccccc2)c(C(=O)O)c1 [2-(Benzenesulphonylmethyl)-5-(2-methyl-2H-pyrazol-3-yl)benzoic acid],> 2000 nM
20,N#CCNc1c(-c2ccoc2)ccc(CS(=O)(=O)c2ccccc2)c1C(=O)O [6-(Benzenesulphonylmethyl)-2-(cyanomethylamino)-3-(furan-3-yl)benzoic acid],< 200 nM
21,COc1c(-c2ccoc2)ccc(CS(=O)(=O)c2cccc(Cl)c2)c1C(=O)O [6-(3-Chlorobenzenesulphonylmethyl)-3-(furan-3-yl)-2-methoxybenzoic acid],< 200 nM
22,CCc1ccc(CS(=O)(=O)c2ccc(F)cc2)c(C(=O)O)c1OC [3-Ethyl-6-(4-fluorobenzenesulphonylmethyl)-2-methoxybenzoic acid],200 to 2000 nM

# Continued, values first:
row,IC50,Compound
1,< 200 nM,CNc1c(-c2ccoc2)ccc(CS(=O)(=O)c2ccccc2)c1C(=O)O [6-(Benzenesulphonylmethyl)-3-(furan-3-yl)-2-methylamino benzoic acid]
2,200 to 2000 nM,COc1c(-c2cnsc2)ccc(CS(=O)(=O)c2ccccc2)c1C(=O)O [6-(Benzenesulphonylmethyl)-3-(isothiazol-4-yl)-2-methoxybenzoic acid]
3,< 200 nM,O=C(O)c1c(CS(=O)(=O)c2ccccc2)ccc(-c2ccoc2)c1OCCO [6-(Benzenesulphonylmethyl)-3-(furan-3-yl)-2-(2-hydroxyethoxy)benzoic acid]
4,> 2000 nM,COc1c(-c2cccnc2)ccc(CS(=O)(=O)c2ccccc2)c1C(=O)O [6-(Benzenesulphonylmethyl)-2-methoxy-3-(3-pyridyl)benzoic acid]
5,> 2000 nM,COc1c(-c2ccon2)ccc(CS(=O)(=O)c2ccccc2)c1C(=O)O [6-(Benzenesulphonylmethyl)-3-(isoxazol-3-yl)-2-methoxybenzoic acid]
6,> 2000 nM,COc1c(-c2ccoc2)ccc(CS(=O)(=O)C2CC3CCC2CC3)c1C(=O)O (centres unmarked) [6-(Bicyclo[2.2.2]octane-2-ylsulphonylmethyl)-3-(furan-3-yl)-2-methoxybenzoic acid]
7,> 2000 nM,COCCOc1c(-c2ccoc2)ccc(CS(=O)(=O)c2ccccc2)c1C(=O)O [6-(Benzenesulphonylmethyl)-3-(furan-3-yl)-2-(2-methoxyethoxy)-benzoic acid]
8,< 200 nM,CCN(CC)CCCNc1ccccc1S(=O)(=O)Cc1ccc(-c2ccoc2)c(OC)c1C(=O)O [6-[2-(3-Diethylaminopropylamino)benzenesulphonylmethyl]-3-(furan-3-yl)-2-methoxybenzoic acid]
9,> 2000 nM,COc1c(-c2nccs2)ccc(CS(=O)(=O)c2ccccc2)c1C(=O)O [6-(Benzenesulphonylmethyl)-2-methoxy-3-(thiazol-2-yl)benzoic acid]
10,200 to 2000 nM,"COc1cc(CS(=O)(=O)c2ccccc2)c(C(=O)O)c(OC)c1-c1ccoc1 [6-(Benzenesulphonylmethyl)-3-(furan-3-yl)-2,4-dimethoxybenzoic acid]"
11,200 to 2000 nM,CCN(CC)C/C=C/c1ccccc1S(=O)(=O)Cc1ccc(-c2ccoc2)c(OC)c1C(=O)O [(E)-6-((2-(3-(diethylamino)prop-1-enyl)benzenesulfonyl)methyl)-3-(furan-3-yl)-2-methoxybenzoic acid]
12,200 to 2000 nM,COc1c(C2CC2)ccc(CS(=O)(=O)c2ccccc2)c1C(=O)O [6-(Benzenesulphonylmethyl)-3-cyclopropyl-2-methoxy-benzoic acid]
13,> 2000 nM,CC#Cc1c(-c2ccoc2)ccc(CS(=O)(=O)c2ccccc2)c1C(=O)O [6-(Benzenesulphonylmethyl)-3-(furan-3-yl)-2-(prop-1-yn-1-yl)benzoic acid]
14,200 to 2000 nM,COc1c(Br)ccc(CS(=O)(=O)c2ccccc2)c1C(=O)O [6-(Benzenesulphonylmethyl)-3-bromo-2-methoxybenzoic acid]
15,> 2000 nM,COc1c(C2CCOC2)ccc(CS(=O)(=O)C2CC3CCC2CC3)c1C(=O)O (centres unmarked) [6-(Bicyclo[2.2.2]octane-2-ylsulphonylmethyl)-2-methoxy-3-(tetrahydrofuran-3-yl)benzoic acid]
16,< 200 nM,CCN(CC)C/C=C\c1cc(F)ccc1S(=O)(=O)Cc1ccc(-c2ccoc2)c(OCC#N)c1C(=O)O [(Z)-2-Cyanomethoxy-6-((2-(3-(Diethylamino)prop-1-enyl)-4-fluorobenzenesulfonyl)methyl)-3-(furan-3-yl)benzoic acid]
17,< 200 nM,CCN(CC)CCCc1ccccc1S(=O)(=O)Cc1ccc(-c2ccoc2)c(OC)c1C(=O)O [6-[2-(3-Diethylaminopropyl)benzenesulphonylmethyl]-3-(furan-3-yl)-2-methoxybenzoic acid]
18,> 2000 nM,CCN(CC)CCOc1ccccc1S(=O)(=O)Cc1ccc(-c2ccoc2)c(OC)c1C(=O)O [6-[2-(2-Diethylaminoethoxy)benzenesulphonylmethyl]-3-(furan-3-yl)-2-methoxybenzoic acid]
19,> 2000 nM,COc1c(-c2ccsc2)ccc(CS(=O)(=O)c2ccccc2)c1C(=O)O [6-(Benzenesulphonylmethyl)-2-methyoxy-3-(thien-3-yl)benzoic acid]
20,> 2000 nM,O=C(O)c1c(CS(=O)(=O)c2ccccc2)ccc(-c2ccoc2)c1O [6-(benzenesulphonylmethyl)-3-(furan-3-yl)-2-hydroxybenzoic acid]
21,200 to 2000 nM,COc1c(-c2ccoc2)ccc(CS(=O)(=O)C2C3CCC2CC3)c1C(=O)O (centres unmarked) [6-(Bicyclo[2.2.1]heptane-7-ylsulphonylmethyl)-3-(furan-3-yl)-2-methoxybenzoic acid]
22,200 to 2000 nM,COc1c(-c2ccoc2)ccc(CS(=O)(=O)C2CCCCC2)c1C(=O)O [6-(Cyclohexanesulphonylmethyl)-3-(furan-3-yl)-2-methoxybenzoic acid]
